Assay results taken from the supplement of paper PMC10307832.

Tests used:
Assay in all cases: relative viability (nuclei count vs DMSO), 5 days (fraction); higher = more cells survive
[1] = compound: O[C@H]1CC[C@H](Nc2ncc3nc(Nc4c(F)cc(F)cc4F)n([C@H]4CCOC4)c3n2)CC1 [Tanzisertib] + CCNC(=O)c1noc(-c2cc(C(C)C)c(O)cc2O)c1-c1ccc(CN2CCOCC2)cc1 [Luminespib] (partner 0.01 µM)
Summary of the method: (§1)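 Relative viability divides the nuclei count in treated wells by that in vehicle wells. Lung cancer cell lines were seeded in 1536-well plates, dosed by pin tool the next day, and fixed and stained after 5 days in one step with final 0.05% Triton X-100, 1% formaldehyde and 1 ug/ml Hoechst. Dosing was a single drug or a fixed anchor-drug dose plus five library-drug doses (not always all listed) in √10 steps, and values are medians of duplicate plates imaged at 4×.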

[2] = compound: C[C@@H](N)c1ccc(C(=O)Nc2ccnc3[nH]ccc23)cc1 + Nc1ncn([C@H]2C[C@H](O)[C@@H](CO)O2)c(=O)n1 [Decitabine] (partner 2 µM)
Summary of the method: as §1

[3] = compound: C1CNCCC1C2=CC(=NN2)C3=CC=NC=C3 + CC(C)C[C@H](NC(=O)[C@H](Cc1ccccc1)NC(=O)c1cnccn1)B(O)O [Bortezomib] (partner 0.002 µM)
Summary of the method: as §1

[4] = compound: C1CNCCC1C2=CC(=NN2)C3=CC=NC=C3 + C[C@@H](Oc1cc(-c2cnn(C3CCNCC3)c2)cnc1N)c1c(Cl)ccc(F)c1Cl [Crizotinib] (partner 1 µM)
Summary of the method: as §1

Row | Cell Line | relative viability ([1]; first compound 0.08 µM) | relative viability ([1]; first compound 0.253 µM) | relative viability ([1]; first compound 0.8 µM) | relative viability ([1]; first compound 2.53 µM) | relative viability ([1]; first compound 8 µM) | relative viability ([2]; first compound 0.04 µM) | relative viability ([2]; first compound 0.1265 µM) | relative viability ([2]; first compound 0.4 µM) | relative viability ([2]; first compound 1.265 µM) | relative viability ([2]; first compound 4 µM) | relative viability ([3]; first compound 0.08 µM) | relative viability ([3]; first compound 0.8 µM) | relative viability ([3]; first compound 2.53 µM) | relative viability ([3]; first compound 8 µM) | relative viability ([4]; first compound 0.08 µM) | relative viability ([4]; first compound 0.8 µM) | relative viability ([4]; first compound 2.53 µM) | relative viability ([4]; first compound 8 µM)
1 | NCI-H2023 | 0.966 | 0.762 | 0.826 | 0.628 | 0.696 | 0.252 | 0.243 | 0.245 | 0.222 | 0.159 | 0.793 | 0.958 | 1.24 | 0.983 | 0.427 | 0.688 | 0.738 | 0.709
2 | NCI-H838 | 0.293 | 0.34 | 0.277 | 0.248 | 0.209 | 0.482 | 0.47 | 0.466 | 0.415 | 0.3 | 0.823 | 0.939 | 0.739 | 0.73 | 0.844 | 0.924 | 0.954 | 0.796
3 | NCI-H661 | 0.903 | 0.943 | 0.902 | 0.952 | 0.955 | 0.51 | 0.59 | 0.573 | 0.493 | 0.504 | 0.916 | 0.825 | 0.801 | 1.01 | 1.15 | 0.96 | 1.05 | 0.902
4 | NCI-H1734 | 0.208 | 0.206 | 0.214 | 0.197 | 0.203 | 0.477 | 0.506 | 0.53 | 0.52 | 0.462 | 0.97 | 1.04 | 1.21 | 1.03 | 0.663 | 0.687 | 0.653 | 0.654
5 | NCI-H1650 | 0.233 | 0.215 | 0.206 | 0.2 | 0.196 | 0.379 | 0.542 | 0.51 | 0.431 | 0.447 | 0.212 | 0.184 | 0.214 | 0.204 | 0.43 | 1.08 | 1.07 | 0.963
6 | NCI-H596 | 1.1 | 1.16 | 1.22 | 0.96 | 0.892 | 1.02 | 1.11 | 1.09 | 1.19 | 1.13 | 1 | 1.06 | 1.12 | 1.16 | 0.984 | 1.15 | 1.04 | 0.991
7 | HCC-15 | 0.504 | 0.193 | 0.357 | 0.406 | 0.453 | 0.698 | 0.613 | 0.623 | 0.612 | 0.514 | 0.991 | 1.23 | 0.994 | 0.938 | 0.805 | 0.928 | 0.839 | 0.779
8 | NCI-H727 | 0.365 | 0.345 | 0.339 | 0.375 | 0.728 | 1 | 1.03 | 0.942 | 0.764 | 0.908 | 0.842 | 0.829 | 1.14 | 0.911 | 0.718 | 1.1 | 1.05 | 0.776
9 | HOP-62 | 0.966 | 0.924 | 0.886 | 0.91 | 0.883 | 0.21 | 0.225 | 0.241 | 0.206 | 0.207 | 0.479 | 0.84 | 1.15 | 0.728 | 0.682 | 1.11 | 0.942 | 0.978
10 | NCI-H3122 | 0.134 | 0.0952 | 0.125 | 0.0854 | 0.103 | 0.46 | 0.454 | 0.419 | 0.458 | 0.458 | 0.989 | 1.04 | 1.04 | 0.965 | 0.303 | 0.265 | 0.255 | 0.283
11 | NCI-H647 | 0.152 | 0.12 | 0.196 | 0.158 | 0.336 | 0.314 | 0.324 | 0.419 | 0.521 | 0.335 | 0.935 | 0.796 | 1.07 | 0.86 | 1.05 | 1.08 | 1.01 | 1.06
12 | NCI-H650 | 0.725 | 0.915 | 0.884 | 0.936 | 0.855 | – | 0.3 | 0.369 | – | 0.3 | 0.803 | 0.689 | 0.949 | 0.734 | 0.681 | 0.802 | 0.929 | 0.489
13 | EKVX | 0.974 | 0.882 | 0.801 | 0.833 | 0.825 | 0.385 | 0.331 | 0.358 | 0.329 | 0.385 | 1.21 | 0.585 | 1.07 | 1.04 | 1.05 | 0.807 | 0.956 | 0.925
14 | NCI-H460 | 0.0366 | 0.0372 | 0.0359 | 0.0394 | 0.0394 | 0.525 | 0.485 | 0.581 | 0.575 | 0.451 | 0.892 | 1.49 | 1.06 | 1.12 | 0.369 | 1.02 | 1.02 | 0.996
15 | LCLC-97TM1 | 0.956 | 0.669 | 0.803 | 0.824 | 0.788 | 0.254 | 0.263 | 0.249 | 0.218 | 0.304 | 0.668 | 0.666 | 0.796 | 0.444 | 0.348 | 0.429 | 0.408 | 0.406
16 | COR-L23 | 0.588 | 0.579 | 0.669 | 0.706 | 0.639 | 0.385 | 0.441 | 0.421 | 0.393 | 0.305 | 0.872 | 0.993 | 0.95 | 0.981 | 0.651 | 0.615 | 0.719 | 0.695
17 | NCI-H1355 | 0.77 | 0.697 | 0.805 | 0.725 | 0.628 | 0.343 | 0.332 | 0.317 | 0.306 | 0.322 | 1.23 | 1.22 | 1.27 | 1.26 | 1.02 | 1.03 | 1.12 | 1.13
